From patent US20210127671A1, “HYPERSENSITIVE RESPONSE ELICITOR PEPTIDES AND USE THEREOF” (priority 2015, published 2021)
Read-outs that look alike come from different tables or passages of the source. Peptide text beside a SMILES is read from it.

Tests used:
[1] = Stability against chemical degradation in water or pH buffers at 50° C. (HPLC); settings: for precipitation during stability test: 0.2% AI, 0.25% Proxel GXL, 50 mM buffers, 50° C.
Experimental: Briefly, the stability and resistance to chemical degradation of peptides can be assessed as follows using peptide samples having an initial purity of at least about 80%, at least about 82%, at least about 84%, at least about 86%, at least about 88%, at least about 90%, at least about 92%, at least about 94%, at least about 96%, or at least about 98%. For water stability, the peptide is dissolved directly in de-ionized water. For chemical degradation tests, the peptide is dissolved in an aqueous solution containing 50 mM pH buffer and 0.25% Proxel GXL. Exemplary pH buffers include, without limitation: (i) Citrate pH 5.6; (ii) MES pH 6.2; (iii) MOPS pH 6.5; (iv) imidazole pH 7.0; (v) Citrate pH 7.2; (vi) EDDS, pH 7.3; (vii) EDTA pH 8.0; (viii) sodium phosphate pH 8.0; or (ix) TES pH 8.0. Peptides are first dissolved in the aqueous solution at a concentration of 0.5 mg/ml. […] An initial sample of the peptide is removed, diluted 10× with water, and analyzed by reverse-phase HPLC. Briefly, 20 μl of the sample is injected into the solvent flow of an HPLC instrument and analyzed on a C18 HPLC column (YMC ProPack C18, YMC, Japan, or C18 Stablebond, Agilent Technologies, USA) using either a triethylamine phosphate in water/acetonitrile gradient or a 0.1% TFA in water/0.1% TFA in acetonitrile gradient to separate different peptide species. Eluting peptides are monitored by UV absorbance at 218 nm and quantified based on the area under the peak. The area under the peak for the initial peptide sample is treated as the standard for relative quantification in subsequent runs. At regular intervals (e.g., 1, 3, 7, 10, 14, 17, and 21 days), each peptide sample is surveyed and analyzed by HPLC as described above.
Stability against chemical degradation was assessed in various pH buffers by creating 0.2% AI solutions of pure, chemically synthesized peptide in deionized water, 0.25% weight to volume of Proxel® GXL (biocide), and 50 millimolar (mM) of eight buffers (separately) as follows: MES pH 5.6, MOPS pH 6.5, Citrate pH 7.2, EDDS pH 7.3, EDTA pH 8, Phosphate pH 8, Imidazole pH 8, and TES pH 8.

[2] = 0.2% AI in deionized water, 48 hours at room temperature
[3] = 50° C., 50 mM TES, pH 8.0 and 30% isopropanol
[4] = pH 8
[5] = not given; remark: listed apart in the source
Soy = test: Growth test, foliar spray, soy; assay type: in vivo
Experimental: For growth tests, corn and soy seeds were planted in flats with 2 seeds per cell within the flat at a greenhouse facility. The seeds were allowed to germinate and the smaller plant is culled, leaving one plant per cell. Once the first true leaves are fully expanded and the second leaves are beginning to expand, the plants were initially measured for height. This was performed by stretching the highest leaf upward and measuring the distance to the soil. Peptides were dissolved in water at the indicated concentrations (below). The plants were then treated with a foliar spray using widely available spray bottles until liquid was dripping from the leaves. 4 flats of 14 plants each were treated per condition (peptide or control). Corn and soy were treated as indicated in Table 13 and compared with matched water-treated control plants. The plants were allowed to grow for 14 days. The height of the plants was again measured and compared to the original height to quantify growth. In some cases, the plants were allowed to grow without watering for 2-4 days until the onset of wilting and drought stress. At this time, the above-ground portions of the plants were harvested and weighed to determine the fresh mass. […] Growth, dry biomass, and fresh mass are calculated as the % increase over the water-treated control.

CC[C@H](C)[C@H](NC(=O)CNC(=O)[C@H](CCC(N)=O)NC(=O)[C@@H](N)CC(N)=O)C(=O)N[C@@H](CO)C(=O)N[C@@H](CCC(=O)O)C(=O)N[C@@H](CCCCN)C(=O)N[C@@H](CCC(N)=O)C(=O)N[C@@H](CC(C)C)C(=O)N[C@@H](CC(=O)O)C(=O)N[C@@H](CCC(N)=O)C(=O)N[C@@H](CC(C)C)C(=O)N[C@@H](CC(C)C)C(=O)N[C@H](C(=O)N[C@@H](CCC(N)=O)C(=O)N[C@@H](CC(C)C)C(=O)N[C@H](C(=O)N[C@@H](CCCCN)C(=O)N[C@@H](C)C(=O)N[C@@H](CC(C)C)C(=O)N[C@@H](CC(C)C)C(=O)N[C@@H](CCC(N)=O)C(=O)N[C@@H](CCC(N)=O)C(=O)O)[C@@H](C)CC)[C@@H](C)O [Peptide P1-18K] (H-NQGISEKQLDQLLTQLIKALLQQ-OH; N-terminus and C-terminus assumed)
% remaining after 14 days incubation ([1]; 50 mM TES, pH 8.0, 50° C.): 58%
solubility: ≥ 20000 µg/mL

CC[C@H](C)[C@H](NC(=O)CNC(=O)[C@H](CCC(N)=O)NC(=O)[C@@H](N)CC(N)=O)C(=O)N[C@@H](CO)C(=O)N[C@@H](CCC(=O)O)C(=O)N[C@@H](CCCCN)C(=O)N[C@@H](CCC(N)=O)C(=O)N[C@@H](CC(C)C)C(=O)N[C@@H](CC(=O)O)C(=O)N[C@@H](CCC(N)=O)C(=O)N[C@@H](CC(C)C)C(=O)N[C@@H](CC(C)C)C(=O)N[C@H](C(=O)N[C@@H](CCC(N)=O)C(=O)N[C@@H](CC(C)C)C(=O)N[C@H](C(=O)N[C@@H](CCSC)C(=O)N[C@@H](C)C(=O)N[C@@H](CC(C)C)C(=O)N[C@@H](CC(C)C)C(=O)N[C@@H](CCC(N)=O)C(=O)N[C@@H](CCC(N)=O)C(=O)O)[C@@H](C)CC)[C@@H](C)O [Peptide P1] (H-NQGISEKQLDQLLTQLIMALLQQ-OH; N-terminus and C-terminus assumed)
solubility [2]: largely insoluble in water
% of the material remaining after 7 days ([1]; 50 mM EDDS, pH 7.3): 10%
better stability than the mutants after 14 days ([1]; 50 mM MES pH 6.0, 50° C.): 10-30%
% degraded after 1 week of incubation ([1]; 50 mM TES, pH 8.0, 80° C. as printed): more than 90%
precipitation during stability test [1]: Precipitation of P1 was observed after several days
stability (in words) ([1]; dissolved in water, FIG. 1): modestly stable
solubility behaviour ([1]; lower pH: deionized water, 50 mM citrate pH 5.6, 50 mM MES pH 6.0): solubility problems
solubility (in words) ([1]; phosphate, pH 8.0): some cloudiness in solution
stability (in words) ([1]; phosphate, pH 8.0): appears to outperform the stability of the mutants
solubility: < 1000 µg/mL

CC[C@H](C)[C@H](NC(=O)CNC(=O)[C@H](CCC(N)=O)NC(=O)[C@@H](N)CO)C(=O)N[C@@H](CO)C(=O)N[C@@H](CCC(=O)O)C(=O)N[C@@H](CCCCN)C(=O)N[C@@H](CCC(N)=O)C(=O)N[C@@H](CC(C)C)C(=O)N[C@@H](CC(=O)O)C(=O)N[C@@H](CCC(N)=O)C(=O)N[C@@H](CC(C)C)C(=O)N[C@@H](CC(C)C)C(=O)N[C@@H](CS)C(=O)N[C@@H](CCC(N)=O)C(=O)N[C@@H](CC(C)C)C(=O)N[C@H](C(=O)N[C@@H](CCC(N)=O)C(=O)N[C@@H](C)C(=O)N[C@@H](CC(C)C)C(=O)N[C@@H](CC(C)C)C(=O)N[C@@H](CCC(N)=O)C(=O)N1CCC[C@H]1C(=O)O)[C@@H](C)CC [Peptide P4] (H-SQGISEKQLDQLLCQLIQALLQP-OH; N-terminus and C-terminus assumed)
solubility [2]: completely soluble
precipitation during stability test [1]: remained in solution
solution stability (in words) ([1]; aqueous solution): very poor stability
solubility: ≥ 100000 µg/mL

CSCC[C@H](NC(=O)[C@H](CC(C)C)NC(=O)[C@H](C)NC(=O)[C@H](CCC(N)=O)NC(=O)[C@H](CCSC)NC(=O)[C@@H]1CCCN1C(=O)[C@H](CC(=O)O)NC(=O)[C@@H](N)CCC(N)=O)C(=O)N[C@@H](CCC(N)=O)C(=O)N[C@@H](CC(C)C)C(=O)N[C@@H](CC(C)C)C(=O)N[C@@H](CCC(=O)O)C(=O)N[C@@H](CC(=O)O)C(=O)N[C@@H](CC(C)C)C(=O)N[C@H](C(=O)N[C@@H](CCCCN)C(=O)N[C@@H](CC(C)C)C(=O)N[C@@H](CC(C)C)C(=O)N[C@@H](CCCCN)C(=O)O)C(C)C [Peptide P14d] (H-QDPMQALMQLLEDLVKLLK-OH; N-terminus and C-terminus assumed)
chemical stability for >50 days [3]: around 50%

CC[C@H](C)[C@H](NC(=O)[C@H](CCC(=O)O)NC(=O)[C@H](CCC(=O)O)NC(=O)[C@H](CCC(=O)O)NC(=O)[C@H](CCC(=O)O)NC(=O)[C@H](CCC(=O)O)NC(=O)[C@@H](N)CO)C(=O)N[C@@H](C)C(=O)N[C@@H](CCCCN)C(=O)N[C@@H](CC(C)C)C(=O)N[C@H](C(=O)N[C@@H](CO)C(=O)N[C@@H](C)C(=O)N[C@@H](CC(C)C)C(=O)N[C@H](C(=O)N[C@@H](CCC(=O)O)C(=O)N[C@@H](CO)C(=O)N[C@@H](CC(C)C)C(=O)N[C@@H](CC(C)C)C(=O)N[C@@H](CCC(=O)O)C(=O)O)[C@@H](C)CC)[C@@H](C)CC [Peptide P15-59] (H-SEEEEEIAKLISALIESLLE-OH; N-terminus and C-terminus assumed)
solubility [4]: > 10000 µg/mL

CC[C@H](C)[C@H](NC(=O)[C@H](CC(N)=O)NC(=O)[C@H](CO)NC(=O)[C@H](CCC(N)=O)NC(=O)[C@H](CO)NC(=O)[C@H](CC(=O)O)NC(=O)[C@H](CC(N)=O)NC(=O)[C@@H]1CCCN1C(=O)[C@H](CCCCN)NC(=O)[C@H](CO)NC(=O)[C@H](C)NC(=O)[C@H](CC(=O)O)NC(=O)[C@H](CCC(N)=O)NC(=O)[C@@H]1CCCN1C(=O)[C@H](CC(N)=O)NC(=O)[C@H](CCC(N)=O)NC(=O)[C@@H](NC(=O)[C@@H](NC(=O)[C@H](CO)NC(=O)[C@H](CC(=O)O)NC(=O)[C@@H]1CCCN1C(=O)[C@@H](NC(=O)CNC(=O)[C@H](Cc1ccccc1)NC(=O)[C@@H](N)CC(N)=O)[C@@H](C)O)[C@@H](C)O)C(C)C)C(=O)N[C@@H](C)C(=O)N[C@@H](CCCCN)C(=O)N[C@@H](CC(C)C)C(=O)N[C@H](C(=O)N[C@@H](CO)C(=O)N[C@@H](C)C(=O)N[C@@H](CC(C)C)C(=O)N[C@H](C(=O)N[C@@H](CCSC)C(=O)N[C@@H](CO)C(=O)N[C@@H](CC(C)C)C(=O)N[C@@H](CC(C)C)C(=O)N[C@@H](CCC(N)=O)C(=O)N[C@@H](CCSC)C(=O)O)[C@@H](C)CC)[C@@H](C)CC [Peptide P15a] (H-NFGTPDSTVQNPQDASKPNDSQSNIAKLISALIMSLLQM-OH; N-terminus and C-terminus assumed)
solubility [4]: > 10000 µg/mL

CC[C@H](C)[C@H](NC(=O)[C@H](CC(N)=O)NC(=O)[C@H](CO)NC(=O)[C@H](CCC(N)=O)NC(=O)[C@H](CO)NC(=O)[C@H](CC(=O)O)NC(=O)[C@H](CC(N)=O)NC(=O)[C@@H]1CCCN1C(=O)[C@@H](N)CCCCN)C(=O)N[C@@H](C)C(=O)N[C@@H](CCCCN)C(=O)N[C@@H](CC(C)C)C(=O)N[C@H](C(=O)N[C@@H](CO)C(=O)N[C@@H](C)C(=O)N[C@@H](CC(C)C)C(=O)N[C@H](C(=O)N[C@@H](CCSC)C(=O)N[C@@H](CO)C(=O)N[C@@H](CC(C)C)C(=O)N[C@@H](CC(C)C)C(=O)N[C@@H](CCC(N)=O)C(=O)O)[C@@H](C)CC)[C@@H](C)CC [Peptide P15b] (H-KPNDSQSNIAKLISALIMSLLQ-OH; N-terminus and C-terminus assumed)
solubility at 0.2% w/v ([5]; 50 mM MES pH 6.0, and MOPS pH 6.5): at least partially soluble
solubility at 0.2% w/v ([5]; 50 mM of each of citrate pH ~5.2, citrate pH 7.0, phosphate pH 7.0, TES pH 8.0, EDTA pH 8.0, EDDS pH 7.0): insoluble
solubility at 0.2% w/v ([5]; water): partially soluble

SEGISEKQLDQLLSQLIEALLQP [Peptide P4-14S-18E]
Growth (% difference) (Soy; Rate 2.0, 14 days, % increase over water-treated control): 9.0 % difference
Dry biomass (% difference) (Soy; Rate 2.0, % increase over water-treated control): 0.8 % difference
